For 27 molecules, IC50 results are on record in patent US8163756B2 (priority 2004, dated 2012).

This assay has as its target B-Raf(V599E) kinase (Homo sapiens, UniProt P15056, V600E). The experiment in a line: B-Raf(V599E) kinase assay B1 (construct 1, MEK1 substrate, coupled spectrophotometric). The format is biochemical. As to the method: The test compounds were incubated with the reaction mixtureat 30° C. for 2 h. […] The reaction rate was calculated using the […] time frame. […] IC50 values were calculated from a series of percent inhibition values determined at a range of inhibitor concentrations using software routines as implemented in the GraphPad Prism software package.

The mark [1] stands for this setting: Method B1, read-out: B-Raf Data.

Like-named read-outs stand apart in the source and are kept apart here.

Chain of B-Raf(V599E) kinase (P15056 with tags, fused parts or gaps V600E): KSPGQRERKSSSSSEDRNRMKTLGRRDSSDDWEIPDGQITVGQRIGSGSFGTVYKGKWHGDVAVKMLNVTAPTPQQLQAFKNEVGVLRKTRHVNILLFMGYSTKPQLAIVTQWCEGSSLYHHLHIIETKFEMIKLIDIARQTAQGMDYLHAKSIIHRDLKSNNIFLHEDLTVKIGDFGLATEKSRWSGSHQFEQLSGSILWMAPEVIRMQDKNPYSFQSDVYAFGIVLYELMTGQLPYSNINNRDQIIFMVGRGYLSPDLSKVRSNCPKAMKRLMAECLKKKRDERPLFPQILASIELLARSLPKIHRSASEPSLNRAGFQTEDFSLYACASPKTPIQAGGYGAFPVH

In the case of `CC(C)(C)c1cc(NC(=O)Nc2cc(F)c(F)cc2F)n(-c2cccc(CC(N)=O)c2)n1` [Example 434, 1-(1-(3-(2-amino-2-oxoethyl)phenyl)-3-t-butyl-1H-pyrazol-5-yl)-3-(2,4,5-trifluorophenyl)urea], the IC50 under setting [1] came to 6.7 nM.

As to `CC(=O)OCc1cccc(-n2nc(C(C)(C)C)cc2NC(=O)Nc2cccc(Cl)c2Cl)c1` [Example 245, 3-(3-t-butyl-5-(3-(2,3-dichlorophenyl)ureido)-1H-pyrazol-1-yl)benzyl acetate], the IC50 is 5.3 nM.

As to `CCOC(=O)c1cc(-n2nc(C(C)(C)C)cc2NC(=O)Nc2ccc(F)cc2F)cc2ccccc12` [Example 289, ethyl 3-(3-t-butyl-5-(3-(2,4-difluorophenyl)ureido)-1H-pyrazol-1-yl)-1-naphthoate], the IC50 turned out to be 28 nM.

Molecule `CC(C)(C)c1cc(NC(=O)Nc2cccc(Oc3ccccc3)c2)n(-c2cccc(CC(N)=O)c2)n1` [Example 433, 1-(1-(3-(2-amino-2-oxoethyl)phenyl)-3-t-butyl-1H-pyrazol-5-yl)-3-(3-phenoxyphenyl)urea] gave an IC50 of 5.1 nM.

The molecule `CC(C)(C)c1cc(NC(=O)Nc2cccc(Cl)c2Cl)n(-c2cc(CCO)c3ccccc3c2)n1` [Example 303, 1-{5-t-butyl-2-[4-(2-hydroxyethyl)naphthalen-2-yl]-2H-pyrazol-3-yl}-3-(2,3-dichlorophenyl)urea] displayed an IC50 of 4.3 nM.

In turn, `CC(C)(C)c1cc(NC(=O)NC2CCCCC2)n(-c2cccc(CC(N)=O)c2)n1` [Example 391, 1-{1-[3-(2-amino-2-oxoethyl)phenyl]-3-t-butyl-1H-pyrazol-5-yl}-3-cyclohexylurea] gave an IC50 of 37 nM.

Molecule `CC(C)(C)c1cc(NC(=O)Nc2cccc(F)c2F)n(-c2ccc3c(c2)CCC(=O)N3)n1` [Example 320, 1-(3-t-butyl-1-(2-oxo-1,2,3,4-tetrahydro-quinolin-6-yl)-1H-pyrazol-5-yl)-3-(2,3-difluorophenyl)urea] had an IC50 of 4.6 nM.

For the molecule `NC(=O)Cc1cccc(-n2nc(-c3cccs3)cc2NC(=O)Nc2cccc(Cl)c2Cl)c1` [Example 445, 1-(1-(3-(2-amino-2-oxoethyl)phenyl)-3-(thiophen-2-yl)-1H-pyrazol-5-yl)-3-(2,3-dichlorophenyl)urea], under setting [1], the IC50 was found to be 838 nM.

Regarding `CC(C)(C)c1cc(NC(=O)Nc2cccc(Cl)c2Cl)n(-c2cc(C(=O)O)c3ccccc3c2)n1` [Example 287, 3-{3-t-butyl-5-(3-(2,3-dichlorophenyl)ureido]-1H-pyrazol-1-yl}-1-naphthoic acid], the IC50 came to 41 nM.

The molecule `CC(C)(C)c1cc(NC(=O)Nc2ccc(F)cc2F)n(-c2cccc(CC(=O)O)c2)n1` [Example 369, 2-(3-(3-t-butyl-5-(3-(2,4-difluorophenyl)-ureido)-1H-pyrazol-1-yl)phenyl)acetic acid] registered an IC50 of 15 nM.

In the case of `CCOC(=O)c1cc(-n2nc(C(C)(C)C)cc2NC(=O)NC2CCCCC2)cc2ccccc12` [Example 288, ethyl 3-(3-t-butyl-5-(3-cyclohexylureido)-1H-pyrazol-1-yl)-1-naphthoate], the IC50 was found to be 56 nM.

Regarding `CC(C)(C)c1cc(NC(=O)Nc2ccc(F)cc2F)n(-c2ccc3c(c2)CCC(=O)N3)n1` [Example 321, 1-(3-t-butyl-1-(2-oxo-1,2,3,4-tetrahydro-quinolin-6-yl)-1H-pyrazol-5-yl)-3-(2,4-difluorophenyl)urea], the IC50 stood at 7.2 nM.

In turn, `CC(C)(C)c1cc(NC(=O)NC2CCCCC2)n(-c2ccc3c(c2)CNCC3)n1` [Example 327, 1-(3-t-butyl-1-(1,2,3,4-tetrahydroisoquinolin-7-yl)-1H-pyrazol-5-yl)-3-cyclohexylurea] displayed an IC50 of 330 nM.

`CC(C)(C)c1cc(NC(=O)Nc2ccc(F)cc2)n(-c2cc(CO)c3ccccc3c2)n1` [Example 293] had an IC50 of 7 nM.

The molecule `CC(C)(C)c1cc(NC(=O)Nc2ccc(F)cc2F)n(-c2ccc3[nH]c(=O)ccc3c2)n1` [Example 332, 1-(3-t-butyl-1-(2-oxo-1,2-dihydroquinolin-6-yl)-1H-pyrazol-5-yl)-3-(2,4-difluorophenyl)urea] showed an IC50 of 4.4 nM.

Consider `CC(C)NC(=O)Cc1cccc(-n2nc(C(C)(C)C)cc2NC(=O)Nc2cccc(Cl)c2Cl)c1` [Example 441, 1-(3-t-butyl-1-(3-(2-(isopropylamino)-2-oxoethyl)phenyl)-1H-pyrazol-5-yl)-3-(2,3-dichlorophenyl)urea], for which the IC50 is 6.4 nM.

Regarding `C[C@H](NC(=O)Nc1cc(C(C)(C)C)nn1-c1cccc(CC(N)=O)c1)c1ccccc1` [Example 392, 1-{1-[3-(2-amino-2-oxoethyl)phenyl]-3-t-butyl-1H-pyrazol-5-yl}-3-((S)-1-phenylethyl)urea], the IC50 worked out at 221 nM.

Molecule `CC(C)(C)c1cc(NC(=O)Nc2ccc(F)cc2)n(-c2ccc3c(c2)CCC(=O)N3)n1` [Example 317] came in with an IC50 of 36 nM.

With `CC(C)(C)c1cc(NC(=O)Nc2cc(F)cc(F)c2)n(-c2ccc3c(c2)CCC(=O)N3)n1` [Example 326, 1-(3-t-butyl-1-(2-oxo-1,2,3,4-tetrahydro-quinolin-6-yl)-1H-pyrazol-5-yl)-3-(3,5-difluorophenyl)urea], the IC50 amounted to 17 nM.

Turning to `CC(C)(C)c1cc(NC(=O)Nc2cc(F)c(F)c(F)c2)n(-c2ccc3c(c2)CCC(=O)N3)n1` [Example 324, 1-(3-t-butyl-1-(2-oxo-1,2,3,4-tetrahydro-quinolin-6-yl)-1H-pyrazol-5-yl)-3-(3,4,5-trifluorophenyl)urea], the IC50 is 17 nM.

`CC(C)(C)c1cc(NC(=O)Nc2cccc(F)c2F)n(-c2ccc(CO)cc2)n1` [Example 246, 1-{3-t-butyl-1-[4-(hydroxymethyl)phenyl]-1H-pyrazol-5-yl}-3-(2,3-difluoro-phenyl)urea] registered an IC50 of 39 nM.

Molecule `CC(C)(C)c1cc(NC(=O)Nc2ccc(Cl)cc2)n(-c2cc(CCO)c3ccccc3c2)n1` [Example 302, 1-{5-t-butyl-2-[4-(2-hydroxyethyl)naphthalen-2-yl]-2H-pyrazol-3-yl}-3-(4-chlorophenyl)urea] displayed an IC50 of 13 nM.

Regarding `CC(C)(C)c1cc(NC(=O)Nc2ccccc2)n(-c2cc(CO)c3ccccc3c2)n1` [Example 290, 1-[3-t-butyl-1-(4-(hydroxymethyl)naphthalen-2-yl)-1H-pyrazol-5-yl]-3-phenylurea], the IC50 was 12 nM.

Molecule `C[C@H](NC(=O)Nc1cc(C(C)(C)C)nn1-c1cccc(C#N)c1)c1ccccc1` [Example 211, 1-[3-t-butyl-1-(3-cyanophenyl)-1H-pyrazol-5-yl]-3-((S)-1-phenylethyl)urea] yielded an IC50 of 785 nM.

As for `CC(C)(C)c1cc(NC(=O)Nc2ccccc2)n(-c2cc(CN)c3ccccc3c2)n1` [Example 295, 1-[1-(4-(aminomethyl)naphthalen-2-yl)-3-t-butyl-1H-pyrazol-5-yl]-3-phenylurea], the IC50 turned out to be 52 nM.

As to `CC(C)(C)c1cc(NC(=O)Nc2ccccc2)n(-c2cc(CC(N)=O)c3ccccc3c2)n1` [Example 88, 1-(1-(4-(2-amino-2-oxoethyl)naphthalen-2-yl)-3-t-butyl-1H-pyrazol-5-yl)-3-phenylurea], the IC50 was found to be 12 nM.

With `CC(C)(C)c1cc(NC(=O)Nc2cccc(F)c2)n(-c2ccc3c(c2)CCNCC3)n1` [Example 335, 1-(3-t-butyl-1-(2,3,4,5-tetrahydro-1H-benzo[d]azepin-7-yl)-1 H-pyrazol-5-yl)-3-(3-fluorophenyl)urea], the IC50 worked out at 104 nM.
